From the COVID Moonshot data (paper PMC11187573), “Identification of SARS-CoV-2 Mpro inhibitors through deep reinforcement learning for de novo drug design and computational chemistry approaches” (RSC Medicinal Chemistry, 2024)

Tests used:
[1] = target: SARS-CoV-2 Main Protease (SARS-CoV-2) (UniProt P0DTD1)
[2] = target: SARS-CoV-2 Main Protease (SARS-CoV-2) (UniProt P0DTD1); remark: listed apart in the source

Compound	relative solubility at 20 uM	relative solubility at 100 uM	inhibition ([1]; 20.0 µM)	inhibition ([1]; 50.0 µM)	inhibition ([2]; 20.0 µM)	inhibition ([2]; 50.0 µM)	IC50 [1]
C=CC(=O)N(c1ccc(C(C)(C)C)cc1)C(C(=O)NC1CC1)c1cccnc1 (centres undefined)	1.01	1	8.67%	33.3%	25.4%	33%	–
O=S(=O)(NC1(Cc2ccccc2)CCOCC1)c1cccnc1	1	1	–	11.6%	-34.8%	3.06%	–
COc1cccc2c1OCC(NC(=O)c1cc(=O)[nH]c3cc(F)ccc13)C2 (centres undefined)	0.9	0.86	–	0%	-1.01%	-0.175%	–
NS(=O)(=O)c1ccc(N2CCSCC2)cc1	1	1	29.1%	48.2%	–	-25.9%	–
N#Cc1ccc(S(=O)(=O)N2CCN(C(=O)c3cc(=O)[nH]c4cc(F)ccc34)CC2)cc1	0.94	0.94	–	0.23%	6.9%	39.9%	–
CS(=O)(=O)Cc1ccc(C(=O)Nc2cccnc2)o1	1	1	0%	–	0.469%	6.26%	–
CC(NC(=O)c1ccccc1OC1CCCCC1)c1cnccn1 (centres undefined)	1	1	0%	0%	–	11.2%	–
O=C(NCC(O)Cn1ccnn1)c1ccccc1OC1CCC1 (centres undefined)	1	1	0%	0%	-1.11%	2.04%	–
O=C(NCc1coc2ccccc12)C1CCc2nnc(-c3ccc(O)cc3)n2C1 (centres undefined)	0.89	0.94	–	55.3%	-9.94%	2.5%	–
CCC(C)(C)CCN(Cc1ccsc1)C(=O)Cn1nnc2ccccc21	0.99	0.73	-4.79%	40.1%	–	48.3%	–
Cc1ccncc1CC(=O)Nc1cccc(Cl)c1	1	1	–	88.6%	42.2%	67.4%	26.4 µM
COc1cccc2c1OCC(NC(=O)c1cc(=O)[nH]c3ccc(F)cc13)C2 (centres undefined)	0.96	0.81	–	11%	2.25%	19%	–
C=CC(=O)N(c1ccc(N(C)C)c(C)c1)C(C(=O)Nc1c(C)cccc1CC)c1cccnc1 (centres undefined)	0.9	0.77	0%	–	6.4%	13.2%	–
CC(CCc1ccccc1)N1CCN(C(=O)CCl)CC1 (centres undefined)	1	1	62.6%	91.1%	45%	60.7%	13.6 µM
O=C(Nc1cccnc1)c1cc(Cl)ccc1O	1	0.89	0%	–	18.3%	22.8%	–
N#Cc1ccccc1S(=O)(=O)N1CCN(C(=O)c2cc(=O)[nH]c3cc(F)ccc23)CC1	0.94	0.95	–	0%	1.1%	52.4%	–
C=CC(=O)N(c1ccc(C(C)OC)cc1)C(C(=O)Nc1ccc(Cl)cc1)c1cccnc1 (centres undefined)	0.84	0.76	0%	–	12.3%	26.1%	–
C=CC(=O)N(c1ccc2ncsc2c1)C(C(=O)Nc1ccc(OC)cc1C)c1cccnc1 (centres undefined)	0.94	0.92	0%	–	3.21%	11.3%	–
Cc1cccc(NC(=O)Cn2c(=O)oc3ccccc32)c1	0.99	0.94	–	-9.03%	-20.4%	-5.83%	–

Compound	relative solubility at 20 uM	relative solubility at 100 uM	inhibition ([1]; 20.0 µM)	inhibition ([1]; 50.0 µM)	inhibition ([2]; 20.0 µM)	inhibition ([2]; 50.0 µM)	IC50 [1]
CCNc1ncc(C#N)cc1CN1CCN(C(=O)CCl)CC1	0.98	0.95	–	99.7%	99.7%	102%	1.64 µM
C=CC(=O)N(c1cc(C(C)(C)C)on1)C(C(=O)Nc1ccc(OC)cc1C)c1cccnc1 (centres undefined)	1	0.91	14.3%	–	12.9%	23.4%	–
O=C(CCl)Nc1cccc(-c2ccc3c(c2)CCCC3)c1	0.9	0.87	–	47.7%	10.8%	15.2%	–
COCCc1ccc(Cl)cc1CN1CCN(C(=O)CCl)CC1	1	0.99	–	100%	96.1%	95.1%	2.42 µM
O=C(Cn1nnc2ccccc21)NCc1ccc(Oc2cccnc2)c(F)c1	0.99	0.99	0%	–	-21.1%	-19.3%	–
CC(NC(=O)c1ccccc1OCC(N)=O)c1cnn(C)c1 (centres undefined)	1	1	0%	0%	-1.52%	2.68%	–
CN(CC1COc2ccccc2O1)C(=O)c1cc(=O)[nH]c2cc(F)ccc12 (centres undefined)	0.98	0.99	–	0%	-3.67%	15.3%	–
C=CC(=O)N(c1ccc(C(F)(F)F)cc1)C(C(=O)Nc1ccc(OC)cc1C)c1cccnc1 (centres undefined)	0.95	0.62	11%	–	7.06%	25.4%	–
Cc1noc([C@@H](C)S(=O)(=O)Cc2cccc(C(F)(F)F)c2)n1 (stereo in doubt)	1.01	1	–	0%	-7.05%	-6.94%	–
O=C(CC(=O)Nc1ccncc1)Nc1ccccc1	1	1	0%	0%	–	12%	–
C=CC(=O)N(c1ccc(C(C)(C)C)cc1)C(C(=O)Nc1ccc(F)cc1C)c1cccnc1 (centres undefined)	0.96	0.91	–	1.37%	5.61%	13.9%	–
CN1CCN(C(=O)Cc2c[nH]c3ncccc23)CC1C(=O)NCCc1c[nH]c2ccc(F)cc12 (centres undefined)	0.98	0.98	–	-15%	-9.55%	-21.5%	–
Cc1ccc(NC(=O)Cc2cccc(Cl)c2)cn1	0.99	1	–	0%	0.36%	3.35%	–
C=CC(=O)N(c1ccc(C(C)(C)CC)cc1)C(C(=O)Nc1ccc(Br)cc1)c1cccnc1 (centres undefined)	0.91	0.66	0%	–	8.32%	18.4%	–
CC(=O)NCCc1c[nH]c2c(NCc3ccc4nc[nH]c4c3)cc(F)cc12	0.64	0.86	–	-4.42%	-13.7%	12.1%	–
Cc1cc(NC(=O)Cc2cncnc2)cc(OC2CC(=O)N2)c1 (centres undefined)	1.01	1	–	45%	49.3%	72.7%	–
O=C(c1cc(=O)[nH]c2ccc(F)cc12)N1CCN(S(=O)(=O)c2ccccc2Cl)CC1	0.98	0.93	–	39.8%	19.5%	35.1%	–
Cc1ccc(NC(=O)Cc2cc3cccnc3[nH]2)s1	1	0.96	–	7.42%	23.7%	8.28%	–
C=CC(=O)N(c1ccc(C(C)(C)C)cc1)C(C(=O)NC(C)(C)C)c1cncc(OC)c1 (centres undefined)	1	0.99	0.0741%	8.47%	-13.4%	-6.87%	–
